Experimental data from patent publication US20250127908A1, “HETEROBIFUNCTIONAL CONDITIONAL INHIBITORS” (Kolm Therapeutics Inc., priority 2023, published 2025).

Tests used:
[1] = test system: VCaP cells; assay: VCaP growth inhibition assay (CTG); format: cell-based; conditions: Homo sapiens, 216 h, 30 pM R1881, 9-day treatment, CTG luminescence
Experimental: Example B-2: VCaP Growth Inhibition Assay
VCaP cells (ATCC Cat #CRL-2876) are plated at 1×10^4 cells per well of a white plastic 96-well cluster plate (Thermo Scientific Nunc Cat #165306) in 100 uL phenol red-free DMLEM (Gibco Cat #21063-029) media with […] (Omega Scientific Cat #FB-04). Cluster plates are returned to the incubator (37*C/5% CO2) for 72 hours prior to treatment. Just prior to treatment, 100 uL of phenol red-free DMEM/5% CSS and 60 pM Ri881 (Sigma Cat #R0908-10 mg) was added to each well of the cluster plates (Final R1881 concentration=30 pM). Compounds (200×) were added to each well in a volume of 1 uL, with serial dilutions (1:5) from 20 uM to 2 pM (final concentrations in well are 100 nM to 10 fMV). Cluster plates are returned to the incubator for 9 days.
After the 9-day treatment period, media was removed from the cluster plates by inversion and 100 uL room temperature CTG reagent (Promega Cat #G7573) is added to each well. The cluster plates are placed on a shaker and incubated at room temperature for 20 minutes. Following this shaking/incubation, cluster plates are read on a luminometer (BMG ClarioStar). IC50 values are obtained by graphing the RLU data vs. compound concentration with nonlinear regression 4-parameter logistic curves (GraphPad Prism).

[2] = test system: AR and CBP or p300 ternary complex; assay: Ternary complex formation assay (sandwich ELISA on lysates of treated VCaP cells: AR capture, CBP or p300 detection); format: cell-based; conditions: VCaP cells treated with bifunctional for 1.5 hours; lysate; anti-AR capture, CBP or p300 antibody detection
Experimental: Example B-1: Ternary Complex Formation Assay
Preparation of Mouse Anti-AR Antibody Coated 96 Well Plates
Black MaxiSorp plates: coat with 50 μL of mouse 1/50 diluted AR antibody (Monoclonal Antibody (AR 441 from Thermo Fisher); diluted in phosphate buffered saline (PBS). Spin the liquid to the bottom of the wells, if necessary. Incubate overnight at 4° C. Next day, wash 3 times with 200 μL of TBST. Block with 200 μL of blocking buffer (5% BSA in TBST) at room temperature for 2 hours (BSA: A4503 or A2153 from Sigma). Wash plates 3 times with TBST. Plates are ready for lysates
Preparation of Dimerizer Treated Lysates
Culture cells in 96 wells at 50K VCaP cells/well for at least 3 days. Plate in 5% Omega charcoal stripped FBS in total volume of 200 uL. Treat with bifunctional for 1.5 hours by adding 1 μL of 200× stock in DMSO. Aspirate media/compound. Add and pipet-to-mix 70 μL of 1× AlphaLisa Lysis Buffer to each well (Perkin Elmer, AlphaLISA SureFire Ultra, diluted in water). Pipet up and down when adding lysis buffer to disrupt cells. Let lysis proceed for 30 min at 4° C.
Incubate for 1 hour at room temperature. Flick out the lysates. Wash 3 times with TBST. Add 75 uL of rabbit CBP or p300 antibody to each well (diluted 1:5000 in blocking buffer (5% BSA in TBST). CBP antibody: (D6C5) Rabbit mAb #7389; p300 antibody: (D8Z4E) Rabbit mAb #86377. Incubate overnight at 4° C. Wash 3 times with 300 uL TBST, each time on shaker for 5-10 min. Prepare goat anti-rabbit antibody conjugated to HRP (1/100K dilution in blocking buffer) Invitrogen Catalog number: 32260. Add 75 uL of HRP-conjugated goat anti-rabbit antibody. Incubate at room temperature for 1 hour. Flick out the HRP-antibody mixture. Wash 7-8 times with TBST, each time on shaker for 10 min. Later washes try to overflow the wells so that no residual HRP remains bound to the sides of the well. Prepare and add 75 uL/well of QuantaRed Enhance Chemifluorescent HRP Substrate solution. Immediately read fluorescence on BMG ClarioStar (ex: 570/em 585), and repeat the read in 5 minutes and 15 minutes.

Row | SMILES | IC50 [1] [nM] | Average Ternary Complex [2]
1 | CC(=O)N1CCc2c(c(N3CCCc4cc(-c5cnn(C)c5)c(C(F)F)cc43)nn2C2CCN(CCCOc3ccc(-c4ccc(N5C(=S)N(c6ccc(C#N)c(C(F)(F)F)c6)C(=O)C5(C)C)cc4)cc3)CC2)C1 [Compound 1, 4-[3-[4-[4-[3-[4-[5-acetyl-3-[7-(difluoromethyl)-6-(1-methylpyrazol-4-yl)-3,4-dihydro-2H-quinolin-1-yl]-6,7-dihydro-4H-pyrazolo[4,3-c]pyridin-1-yl]-1-piperidyl]propoxy]phenyl]phenyl]-4,4-dimethyl-5-oxo-2-thioxo-imidazolidin-1-yl]-2-(trifluoromethyl)benzonitrile] | > 100 | B (B is >1 nM and ≤10 nM)
2 | CC(=O)N1CCc2c(c(N3CCCc4cc(-c5cnn(C)c5)c(C(F)F)cc43)nn2C2CCN(CCOCCOc3ccc(C4CCN(c5ccc(C#N)c(C(F)(F)F)c5)CC4)cc3)CC2)C1 [Compound 2, 4-[4-[4-[2-[2-[4-[5-acetyl-3-[7-(difluoromethyl)-6-(1-methylpyrazol-4-yl)-3,4-dihydro-2H-quinolin-1-yl]-6,7-dihydro-4H-pyrazolo[4,3-c]pyridin-1-yl]-1-piperidyl]ethoxy]ethoxy]phenyl]-1-piperidyl]-2-(trifluoromethyl)benzonitrile] | – | D (D is active and >100 nM)
3 | CC(=O)N1CCc2c(c(N3CCCc4cc(-c5cnn(C)c5)c(C(F)F)cc43)nn2C2CCN(CCCCOc3ccc(C4CCN(c5ccc(C#N)c(C(F)(F)F)c5)CC4)cc3)CC2)C1 [Compound 3, 4-[4-[4-[4-[4-[5-acetyl-3-[7-(difluoromethyl)-6-(1-methylpyrazol-4-yl)-3,4-dihydro-2H-quinolin-1-yl]-6,7-dihydro-4H-pyrazolo[4,3-c]pyridin-1-yl]-1-piperidyl]butoxy]phenyl]-1-piperidyl]-2-(trifluoromethyl)benzonitrile] | – | D (D is active and >100 nM)
4 | CC(=O)N1CCc2c(c(N3CCCc4cc(-c5cnn(C)c5)c(C(F)F)cc43)nn2C2CCN(CCCOc3ccc(C4CCN(c5ccc(C#N)c(C(F)(F)F)c5)CC4)cc3)CC2)C1 [Compound 4, 4-[4-[4-[3-[4-[5-acetyl-3-[7-(difluoromethyl)-6-(1-methylpyrazol-4-yl)-3,4-dihydro-2H-quinolin-1-yl]-6,7-dihydro-4H-pyrazolo[4,3-c]pyridin-1-yl]-1-piperidyl]propoxy]phenyl]-1-piperidyl]-2-(trifluoromethyl)benzonitrile] | > 100 | D (D is active and >100 nM)
5 | CNC(=O)N1CCc2c(c(N3CCCc4cc(-c5cnn(C)c5)c(C(F)F)cc43)nn2C2CCN(C(=O)CC3CCN(c4ccc([C@H]5c6ccc(O)cc6CC[C@H]5c5ccccc5)cc4)CC3)CC2)C1 [Compound 6] | 1 to 100 | –
6 | CNC(=O)N1CCc2c(c(N3CCCc4cc(-c5cnn(C)c5)c(C(F)F)cc43)nn2C2CCN(C(=O)CCC3CCN(c4ccc([C@H]5c6ccc(O)cc6CC[C@H]5c5ccccc5)cc4)CC3)CC2)C1 [Compound 7] | 1 to 100 | –
7 | CNC(=O)N1CCc2c(c(N3CCCc4cc(-c5cnn(C)c5)c(C(F)F)cc43)nn2C2CCN(C(=O)COCC3CCN(c4ccc([C@H]5c6ccc(O)cc6CC[C@H]5c5ccccc5)cc4)CC3)CC2)C1 [Compound 8] | 1 to 100 | –
8 | CNC(=O)N1CCc2c(c(N3CCCc4cc(-c5cnn(C)c5)c(C(F)F)cc43)nn2C2CCN(C(=O)COCCCC3CCN(c4ccc([C@H]5c6ccc(O)cc6CC[C@H]5c5ccccc5)cc4)CC3)CC2)C1 [Compound 9] | 1 to 100 | –
9 | CNC(=O)N1CCc2c(c(N3CCCc4cc(-c5cnn(C)c5)c(C(F)F)cc43)nn2C2CCN(C(=O)COCCOCCN3CCN(CC4CCN(c5ccc([C@H]6c7ccc(O)cc7CC[C@H]6c6ccccc6)cc5)CC4)CC3)CC2)C1 [Compound 11] | > 100 | –
10 | CC(=O)N1CCc2c(c(N3CCCc4cc(C#N)ccc43)nn2C2CCN(C(=O)C3CCN(c4ccc(C5CCN(c6ccc(C#N)c(C(F)(F)F)c6)CC5)cc4)CC3)CC2)C1 [Compound 12, 1-[5-acetyl-1-[1-[1-[4-[1-[4-cyano-3-(trifluoromethyl)phenyl]-4-piperidyl]phenyl]piperidine-4-carbonyl]-4-piperidyl]-6,7-dihydro-4H-pyrazolo[4,3-c]pyridin-3-yl]-3,4-dihydro-2H-quinoline-6-carbonitrile] | > 100 | D (D is active and >100 nM)
11 | CC(=O)N1CCc2c(c(N3CCCc4cc(C#N)ccc43)nn2C2CCN(CC3CCN(c4ccc(C5CCN(c6ccc(C#N)c(C(F)(F)F)c6)CC5)cc4)CC3)CC2)C1 [Compound 13, 1-[5-acetyl-1-[1-[[1-[4-[1-[4-cyano-3-(trifluoromethyl)phenyl]-4-piperidyl]phenyl]-4-piperidyl]methyl]-4-piperidyl]-6,7-dihydro-4H-pyrazolo[4,3-c]pyridin-3-yl]-3,4-dihydro-2H-quinoline-6-carbonitrile] | > 100 | D (D is active and >100 nM)
12 | CC(=O)N1CCc2c(c(-c3cccc4cc(-c5ccc(CCC6CCN(c7ccc(C8CCN(c9ccc(C#N)c(C(F)(F)F)c9)CC8)cc7)CC6)nc5)ncc34)nn2C2CCOCC2)C1 [Compound 14, 4-[4-[4-[4-[2-[5-[8-(5-acetyl-1-tetrahydropyran-4-yl-6,7-dihydro-4H-pyrazolo[4,3-c]pyridin-3-yl)-3-isoquinolyl]-2-pyridyl]ethyl]-1-piperidyl]phenyl]-1-piperidyl]-2-(trifluoromethyl)benzonitrile] | > 100 | D (D is active and >100 nM)
13 | CC(=O)N1CCc2c(c(-c3cccc4cc(-c5cnn(CCOC6CCN(c7ccc(C8CCN(c9ccc(C#N)c(C(F)(F)F)c9)CC8)cc7)CC6)c5)ncc34)nn2C2CCOCC2)C1 [Compound 15, 4-[4-[4-[4-[2-[4-[8-(5-acetyl-1-tetrahydropyran-4-yl-6,7-dihydro-4H-pyrazolo[4,3-c]pyridin-3-yl)-3-isoquinolyl]pyrazol-1-yl]ethoxy]-1-piperidyl]phenyl]-1-piperidyl]-2-(trifluoromethyl)benzonitrile] | 1 to 100 | D (D is active and >100 nM)
14 | CC(=O)N1CCc2c(c(N3CCCc4cc(-c5cnn(C)c5)c(C(F)F)cc43)nn2C2CCN(C3CCC(Oc4ccc(-c5ccc(N6C(=S)N(c7ccc(C#N)c(C(F)(F)F)c7)C(=O)C6(C)C)cc5)cc4)C3)CC2)C1 (centres unmarked) [Compound 18] | – | B (B is >1 nM and ≤10 nM)
15 | CC(=O)N1CCc2c(c(N3CCCc4cc(-c5cnn(C)c5)c(C(F)F)cc43)nn2C2CCN(C3CC(Oc4ccc(-c5ccc(N6C(=S)N(c7ccc(C#N)c(C(F)(F)F)c7)C(=O)C6(C)C)cc5)cc4)C3)CC2)C1 (centres unmarked) [Compound 19] | – | B (B is >1 nM and ≤10 nM)
16 | CC(=O)N1CCc2c(c(N3CCCc4cc(-c5cnn(C)c5)c(C(F)F)cc43)nn2C2CCN(CCOC3CCN(c4ccc(N5C(=S)N(c6ccc(C#N)c(C(F)(F)F)c6)C(=O)C5(C)C)cc4)CC3)CC2)C1 [Compound 20] | – | B (B is >1 nM and ≤10 nM)
17 | CC(=O)N1CCc2c(c(N3CCCc4cc(-c5cnn(C)c5)c(C(F)F)cc43)nn2C2CCN(C(=O)COC3CCN(c4ccc(N5C(=S)N(c6ccc(C#N)c(C(F)(F)F)c6)C(=O)C5(C)C)cc4)CC3)CC2)C1 [Compound 21] | – | B (B is >1 nM and ≤10 nM)
